The supplement of paper PMC10307832

Key:
Assay in all cases: relative viability (nuclei count vs DMSO), 5 days (fraction); higher = more cells survive
NCI-H1666 = tested on: NCI-H1666
Summary of the method: (§1)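 Each reported value is a median over duplicate plates. It expresses relative viability: treated-well nuclei count divided by vehicle-well nuclei count. Lung cancer cell lines in 1536-well plates were dosed by pin tool a day after seeding, alone with one drug or with a fixed anchor-drug dose plus five library-drug doses (not always all listed) in √10 steps, and nuclei were counted after 5 days.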

EPLC-272H = tested on: EPLC-272H
Summary of the method: as §1

NCI-H647 = tested on: NCI-H647
Summary of the method: as §1

PC-14 = tested on: PC-14
Summary of the method: as §1

NCI-H1915 = tested on: NCI-H1915
Summary of the method: as §1

NCI-H661 = tested on: NCI-H661
Summary of the method: as §1

H3255 = tested on: H3255
Summary of the method: as §1

ChaGo-K-1 = tested on: ChaGo-K-1
Summary of the method: as §1

NCI-H23 = tested on: NCI-H23
Summary of the method: as §1

COR-L 105 = tested on: COR-L 105
Summary of the method: as §1

NCI-H2347 = tested on: NCI-H2347
Summary of the method: as §1

NCI-H2405 = tested on: NCI-H2405
Summary of the method: as §1

LCLC-97TM1 = tested on: LCLC-97TM1
Summary of the method: as §1

201T = tested on: 201T
Summary of the method: as §1

HCC-827 = tested on: HCC-827
Summary of the method: as §1

RERF-LC-KJ = tested on: RERF-LC-KJ
Summary of the method: as §1

NCI-H650 = tested on: NCI-H650
Summary of the method: as §1

NCI-H520 = tested on: NCI-H520
Summary of the method: as §1

HCC-78 = tested on: HCC-78
Summary of the method: as §1

NCI-H2126 = tested on: NCI-H2126
Summary of the method: as §1

LC-2-ad = tested on: LC-2-ad
Summary of the method: as §1

NCI-H2087 = tested on: NCI-H2087
Summary of the method: as §1

SMILES: O=c1cc(-c2cccc3c2Sc2ccccc2S3)oc(N2CCOCC2)c1 + COc1cc2c(Oc3ccc(NC(=O)C4(C(=O)Nc5ccc(F)cc5)CC4)cc3F)ccnc2cc1OCCCN1CCOCC1 [Foretinib] (partner 0.25 µM)
- relative viability (NCI-H1666; first compound 0.08 µM): 1
- relative viability (NCI-H1666; first compound 0.253 µM): 1.07
- relative viability (NCI-H1666; first compound 0.8 µM): 1.13
- relative viability (NCI-H1666; first compound 2.53 µM): 0.971
- relative viability (NCI-H1666; first compound 8 µM): 0.908
- relative viability (EPLC-272H; first compound 0.08 µM): 0.6
- relative viability (EPLC-272H; first compound 0.253 µM): 0.624
- relative viability (EPLC-272H; first compound 0.8 µM): 0.897
- relative viability (EPLC-272H; first compound 2.53 µM): 0.675
- relative viability (EPLC-272H; first compound 8 µM): 0.572
- relative viability (NCI-H647; first compound 0.08 µM): 1.15
- relative viability (NCI-H647; first compound 0.253 µM): 1.35
- relative viability (NCI-H647; first compound 0.8 µM): 1.25
- relative viability (NCI-H647; first compound 2.53 µM): 1.21
- relative viability (NCI-H647; first compound 8 µM): 1.29
- relative viability (PC-14; first compound 0.08 µM): 0.95
- relative viability (PC-14; first compound 0.253 µM): 1.29
- relative viability (PC-14; first compound 0.8 µM): 0.924
- relative viability (PC-14; first compound 2.53 µM): 0.961
- relative viability (PC-14; first compound 8 µM): 0.966
- relative viability (NCI-H1915; first compound 0.08 µM): 1.21
- relative viability (NCI-H1915; first compound 0.253 µM): 1.2
- relative viability (NCI-H1915; first compound 0.8 µM): 1.08
- relative viability (NCI-H1915; first compound 2.53 µM): 1.06
- relative viability (NCI-H1915; first compound 8 µM): 1.11
- relative viability (NCI-H661; first compound 0.08 µM): 1.02
- relative viability (NCI-H661; first compound 0.253 µM): 1.02
- relative viability (NCI-H661; first compound 0.8 µM): 0.92
- relative viability (NCI-H661; first compound 2.53 µM): 0.952
- relative viability (NCI-H661; first compound 8 µM): 1
- relative viability (H3255; first compound 0.08 µM): 0.758
- relative viability (H3255; first compound 0.253 µM): 0.821
- relative viability (H3255; first compound 0.8 µM): 0.87
- relative viability (H3255; first compound 2.53 µM): 0.738
- relative viability (H3255; first compound 8 µM): 0.925
- relative viability (ChaGo-K-1; first compound 0.08 µM): 0.883
- relative viability (ChaGo-K-1; first compound 0.253 µM): 0.98
- relative viability (ChaGo-K-1; first compound 0.8 µM): 1.03
- relative viability (ChaGo-K-1; first compound 2.53 µM): 0.88
- relative viability (ChaGo-K-1; first compound 8 µM): 0.861
- relative viability (NCI-H23; first compound 0.08 µM): 0.96
- relative viability (NCI-H23; first compound 0.253 µM): 1.14
- relative viability (NCI-H23; first compound 0.8 µM): 0.906
- relative viability (NCI-H23; first compound 2.53 µM): 0.886
- relative viability (NCI-H23; first compound 8 µM): 0.898
- relative viability (COR-L 105; first compound 0.08 µM): 1.31
- relative viability (COR-L 105; first compound 0.253 µM): 0.854
- relative viability (COR-L 105; first compound 0.8 µM): 0.8
- relative viability (COR-L 105; first compound 2.53 µM): 1.08
- relative viability (COR-L 105; first compound 8 µM): 1.38
- relative viability (NCI-H2347; first compound 0.08 µM): 0.903
- relative viability (NCI-H2347; first compound 0.253 µM): 0.841
- relative viability (NCI-H2347; first compound 0.8 µM): 0.682
- relative viability (NCI-H2347; first compound 2.53 µM): 0.679
- relative viability (NCI-H2347; first compound 8 µM): 0.892
- relative viability (NCI-H2405; first compound 0.08 µM): 0.998
- relative viability (NCI-H2405; first compound 0.253 µM): 1.09
- relative viability (NCI-H2405; first compound 0.8 µM): 0.975
- relative viability (NCI-H2405; first compound 2.53 µM): 0.938
- relative viability (NCI-H2405; first compound 8 µM): 1.04
- relative viability (LCLC-97TM1; first compound 0.08 µM): 0.961
- relative viability (LCLC-97TM1; first compound 0.253 µM): 1.02
- relative viability (LCLC-97TM1; first compound 0.8 µM): 0.977
- relative viability (LCLC-97TM1; first compound 2.53 µM): 0.887
- relative viability (LCLC-97TM1; first compound 8 µM): 0.909
- relative viability (201T; first compound 0.08 µM): 1.14
- relative viability (201T; first compound 0.253 µM): 1.08
- relative viability (201T; first compound 0.8 µM): 0.787
- relative viability (201T; first compound 2.53 µM): 1.06
- relative viability (201T; first compound 8 µM): 1.01
- relative viability (HCC-827; first compound 0.08 µM): 0.94
- relative viability (HCC-827; first compound 0.253 µM): 1.12
- relative viability (HCC-827; first compound 0.8 µM): 1.07
- relative viability (HCC-827; first compound 2.53 µM): 0.863
- relative viability (HCC-827; first compound 8 µM): 1.02
- relative viability (RERF-LC-KJ; first compound 0.08 µM): 0.836
- relative viability (RERF-LC-KJ; first compound 0.253 µM): 0.952
- relative viability (RERF-LC-KJ; first compound 0.8 µM): 0.745
- relative viability (RERF-LC-KJ; first compound 2.53 µM): 0.995
- relative viability (RERF-LC-KJ; first compound 8 µM): 0.792
- relative viability (NCI-H650; first compound 0.08 µM): 0.998
- relative viability (NCI-H650; first compound 0.253 µM): 1.09
- relative viability (NCI-H650; first compound 0.8 µM): 1.04
- relative viability (NCI-H650; first compound 8 µM): 1.01
- relative viability (NCI-H520; first compound 0.08 µM): 0.786
- relative viability (NCI-H520; first compound 0.253 µM): 0.885
- relative viability (NCI-H520; first compound 0.8 µM): 0.835
- relative viability (NCI-H520; first compound 2.53 µM): 0.779
- relative viability (NCI-H520; first compound 8 µM): 0.985
- relative viability (HCC-78; first compound 0.08 µM): 0.515
- relative viability (HCC-78; first compound 0.253 µM): 0.561
- relative viability (HCC-78; first compound 0.8 µM): 0.519
- relative viability (HCC-78; first compound 2.53 µM): 0.514
- relative viability (HCC-78; first compound 8 µM): 0.498
- relative viability (NCI-H2126; first compound 0.08 µM): 1.22
- relative viability (NCI-H2126; first compound 0.253 µM): 1.39
- relative viability (NCI-H2126; first compound 0.8 µM): 1.02
- relative viability (NCI-H2126; first compound 2.53 µM): 1.03
- relative viability (NCI-H2126; first compound 8 µM): 0.994
- relative viability (LC-2-ad; first compound 0.08 µM): 0.888
- relative viability (LC-2-ad; first compound 0.253 µM): 0.97
- relative viability (LC-2-ad; first compound 0.8 µM): 0.94
- relative viability (LC-2-ad; first compound 2.53 µM): 0.875
- relative viability (LC-2-ad; first compound 8 µM): 0.873
- relative viability (NCI-H2087; first compound 0.08 µM): 0.976
- relative viability (NCI-H2087; first compound 0.253 µM): 1.13
- relative viability (NCI-H2087; first compound 0.8 µM): 1.3
- relative viability (NCI-H2087; first compound 2.53 µM): 1.23
- relative viability (NCI-H2087; first compound 8 µM): 1.19
